In patent US20060079453A1, “Hla binding peptides and their uses” (priority 2002, published 2006):
Where two headings read alike, the source gives them in different places. No end group written: not given here.

How the values were obtained:
Assay in all cases: biochemical
Format in all cases: binding
HLA-DR DRB1*1302 (DR13) = HLA-DR DRB1*1302 (DR13) (Homo sapiens, UniProt P01903+P01911, A100E/A169T/K41T/L162R/M171V/P40S/Q125H/Q178H/Q39Y/Q99D/R42S/S66N/T262R/V115G/W38E/Y61H)
HLA-DR DRB1*0401 (DR4) = HLA-DR DRB1*0401 (DR4) (Homo sapiens, UniProt P01903+P01911, A100K/A169T/F76Y/I96L/K127E/L162R/M171V/N62H/P40V/Q125Y/R42H/S133A/S149N/S66Y/V115G/V209L/W38E)
HLA-DR DRB1*1101 (DR11) = HLA-DR DRB1*1101 (DR11) (Homo sapiens, UniProt P01903+P01911, A100R/A169T/A87E/I96F/K41T/L162R/M171V/P40S/Q125H/Q178H/Q39Y/Q99D/R42S/S66Y/T262R/V115G/W38E)
HLA-DR DRB3*0101 (DR52) = HLA-DR DRB3*0101 (DR52) (Homo sapiens, UniProt P01903+P79483)
HLA-DR DRB1*0301 (DR3) = HLA-DR DRB1*0301 (DR3) (Homo sapiens, UniProt P01903+P01911, A100K/A102G/A103R/A169T/F55Y/I96L/K41T/L162R/M171V/P40S/Q125H/Q178H/Q39Y/R42S/S66N/T106N/T262R/W38E/Y61H)
HLA-DR DRB4*0101 (DR53) = HLA-DR DRB4*0101 (DR53) (Homo sapiens, UniProt P01903+P13762, G164S)
HLA-DR DRB1*0701 (DR7) = HLA-DR DRB1*0701 (DR7) (Homo sapiens, UniProt P01903+P01911, A100R/A102G/A103Q/D57E/D86V/E43K/F76Y/K127E/L162R/M171V/P40G/Q125H/Q99D/R33Q/R42Y/R54Q/S133A/S66F/T210M/V115G/Y107V/Y59L/Y89S)
HLA-DR DRB1*0405 (DR4) = HLA-DR DRB1*0405 (DR4) (Homo sapiens, UniProt P01903+P01911, A100R/A169T/D86S/F76Y/I96L/K127E/L162R/M171V/N62H/P40V/Q125Y/R42H/S133A/S149N/S66Y/V115G/V209L/W38E)
HLA-DR DRB5*0101 (DR51) = HLA-DR DRB5*0101 (DR51) (Homo sapiens, UniProt P01903+Q30154)
HLA-DR DRB1*1501 (DR15) = HLA-DR DRB1*1501 (DR15) (Homo sapiens, UniProt P01903+P01911)
HLA-DR DRB1*0101 (DR1) = HLA-DR DRB1*0101 (DR1) (Homo sapiens, UniProt P01903+P01911, A100R/D57E/F55L/F60I/F76Y/I96L/L162R/M171V/P40L/Q125E/R42F/V115G/Y59C)

HLA-DR DRB1*1101 (DR11), sequence (P01903 26-254 limits assumed, other chains not shown): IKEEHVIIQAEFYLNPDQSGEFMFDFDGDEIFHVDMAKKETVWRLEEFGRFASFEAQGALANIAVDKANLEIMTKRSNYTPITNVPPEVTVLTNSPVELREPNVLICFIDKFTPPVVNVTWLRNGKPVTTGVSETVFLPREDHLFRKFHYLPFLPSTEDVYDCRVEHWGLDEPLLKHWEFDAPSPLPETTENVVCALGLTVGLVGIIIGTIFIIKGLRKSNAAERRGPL
HLA-DR DRB1*0301 (DR3), sequence (P01903 26-254 limits assumed, other chains not shown): as above
HLA-DR DRB1*1302 (DR13), sequence (P01903 26-254 limits assumed, other chains not shown): as above

Sequence: GAPLGGAARALAAGV
- IC50 (HLA-DR DRB1*1302 (DR13)): 23.2 µM
- IC50 (HLA-DR DRB1*0401 (DR4)): 11.3 µM
- IC50 (HLA-DR DRB1*1101 (DR11)): 0.045 µM
- IC50 (HLA-DR DRB3*0101 (DR52)): > 51.1 µM
- IC50 (HLA-DR DRB1*0301 (DR3)): 23.3 µM
- IC50 (HLA-DR DRB4*0101 (DR53)): 3.87 µM
- IC50 (HLA-DR DRB1*0701 (DR7)): 7.42 µM
- IC50 (HLA-DR DRB1*0405 (DR4)): > 3.37 µM
- IC50 (HLA-DR DRB5*0101 (DR51)): 8.35 µM
- IC50 (HLA-DR DRB1*1501 (DR15)): 5.71 µM

Sequence: VGGVYLLARRGPRLGV
- IC50 (HLA-DR DRB1*0401 (DR4)): 0.485 µM
- IC50 (HLA-DR DRB1*1101 (DR11)): 0.0065 µM
- IC50 (HLA-DR DRB3*0101 (DR52)): 17 µM
- IC50 (HLA-DR DRB1*0301 (DR3)): 23.3 µM
- IC50 (HLA-DR DRB4*0101 (DR53)): 4.34 µM
- IC50 (HLA-DR DRB1*0101 (DR1)): 0.06 µM
- IC50 (HLA-DR DRB1*0701 (DR7)): 0.595 µM
- IC50 (HLA-DR DRB1*0405 (DR4)): 2.2 µM
- IC50 (HLA-DR DRB5*0101 (DR51)): 0.017 µM
- IC50 (HLA-DR DRB1*1501 (DR15)): 0.0028 µM

Sequence: VGGAYLLPRRGPRLGV
- IC50 (HLA-DR DRB1*1302 (DR13)): 24.7 µM
- IC50 (HLA-DR DRB1*0401 (DR4)): 26.2 µM
- IC50 (HLA-DR DRB3*0101 (DR52)): > 66.5 µM
- IC50 (HLA-DR DRB1*0301 (DR3)): 309 µM
- IC50 (HLA-DR DRB4*0101 (DR53)): 37.6 µM
- IC50 (HLA-DR DRB1*0101 (DR1)): 0.131 µM
- IC50 (HLA-DR DRB1*0701 (DR7)): 0.703 µM
- IC50 (HLA-DR DRB1*0405 (DR4)): > 12.2 µM
- IC50 (HLA-DR DRB5*0101 (DR51)): 0.05 µM
- IC50 (HLA-DR DRB1*1501 (DR15)): 0.0041 µM

Sequence: VGGVYLLPARGPRLGV
- IC50 (HLA-DR DRB1*1302 (DR13)): 0.201 µM
- IC50 (HLA-DR DRB1*1101 (DR11)): 0.694 µM
- IC50 (HLA-DR DRB3*0101 (DR52)): 18.1 µM
- IC50 (HLA-DR DRB1*0301 (DR3)): 68.1 µM
- IC50 (HLA-DR DRB4*0101 (DR53)): 19 µM
- IC50 (HLA-DR DRB1*0101 (DR1)): 0.012 µM
- IC50 (HLA-DR DRB1*0701 (DR7)): 0.049 µM
- IC50 (HLA-DR DRB1*0405 (DR4)): 4.58 µM
- IC50 (HLA-DR DRB5*0101 (DR51)): 0.04 µM
- IC50 (HLA-DR DRB1*1501 (DR15)): 0.0065 µM

Sequence: HLDMLRHLYQGCQVV
- IC50 (HLA-DR DRB1*1302 (DR13); DRBI *1302): 2.88 µM
- IC50 (HLA-DR DRB1*0401 (DR4); DRB1 *0401): 9.42 µM
- IC50 (HLA-DR DRB3*0101 (DR52)): 107 µM
- IC50 (HLA-DR DRB1*0301 (DR3)): 37.6 µM
- IC50 (HLA-DR DRB4*0101 (DR53); DRB4 *0101): 0.163 µM
- IC50 (HLA-DR DRB1*0101 (DR1); DRB1 *0101): 0.304 µM
- IC50 (HLA-DR DRB1*0701 (DR7); DRB1 *0701): 27 µM
- IC50 (HLA-DR DRB1*0405 (DR4); DRB1 *0405): 3.59 µM
- IC50 (HLA-DR DRB5*0101 (DR51); DRB5 *0101): 7.09 µM
- IC50 (HLA-DR DRB1*1501 (DR15); DRBI *1501): 0.359 µM

Sequence: GAALGGAARALAHGV
- IC50 (HLA-DR DRB1*1302 (DR13)): 19.3 µM
- IC50 (HLA-DR DRB1*1101 (DR11)): 0.168 µM
- IC50 (HLA-DR DRB3*0101 (DR52)): > 71 µM
- IC50 (HLA-DR DRB1*0301 (DR3)): 26.9 µM
- IC50 (HLA-DR DRB1*0701 (DR7)): 29.8 µM
- IC50 (HLA-DR DRB1*0405 (DR4)): > 13 µM
- IC50 (HLA-DR DRB5*0101 (DR51)): 25.4 µM
- IC50 (HLA-DR DRB1*1501 (DR15)): 4.48 µM
